Measurements published in patent US5744492A, “Method for inhibiting angiogenesis” (United States of America, priority 1994, dated 1998).

Assays:
[1] = tested on: chick chorioallantoic membrane; test: Chick chorioallantoic membrane (CAM) angiogenesis assay; format: in vivo
Experimental: The chick chorioallantoic or yolk sac membrane (CAM) assays for angiogenesis are important in vivo models of microvessel formation. […] Briefly, fertilized chick embryos with the yolk intact were removed from their shells on day 3 of development and incubated at 37° C.

[2] = tested on: β-actin; test: Northern blot, β-actin probe for quantitation of RNA load in HUVECs; format: cell-based, human; settings: bFGF 10 ng/mL alone, 24 hr
Experimental: (§1) Human umbilical vein endothelial cells (H 930) were generously supplied by Dr. Tom Maciag, American Red Cross (Gaithersburg, Md., USA) and were used between passages 9 and 14 to avoid senescence. HUVECs were grown on fibronectin-coated tissue culture plastic (200 μg/150 mm dish) in complete medium (Medium 199 (M-199) containing 5 U/mL preservative-free heparin, 25.5 μg/mL ECGS, 10% fetal bovine serum and 100 U/mL penicillin, 100 μg/mL streptomycin, and 0.25 μg/mL fungizone).
(§2) HUVECs were grown to confluence as described. Fresh complete medium with test compounds was added to confluent cells for an additional 24 hr incubation. bFGF (10 ng/mL), and/or compound 1 (10 μM) or DMSO control (0.1%) were added as indicated below. Total RNA was isolated by the guanidine isothiocyanate/CsCl method. Aliquots of RNA (7.5 μg) were separated on 1% agarose/formaldehyde gels, passively transferred to GeneScreen Plus membrane in 20X SSC, then cross-linked with ultraviolet light. Blots were prewashed for 1 hr at 42° C. in 1M NaCl, 10 mM Tris, 1 mM EDTA, 0.1% SDS and then hybridized overnight at 42° C. with a formamide-containing buffer (hybridization buffer final: 50% formamide, 4X SSC, 10 mM Tris pH 7.5, IX Denhardt solution, 0.2% SDS, 125 μg/ml salmon sperm DNA) with a random-primed 300 bp insert for MMP-2 (gift of Dr. William Stetler-Stevenson, Laboratory of Pathology, NCI). Blots were washed under stringent conditions then exposed to film. After removal of MMP-2 probe, blots were rehybridized with β-actin probe for quantitation of the RNA load. Results were quantitated by densitometric evaluation of the autoradiographs.
(§3) Lane 1 corresponds to the mRNA from HUVECs treated with DMSO (control). Lanes 2-4 show the mRNA isolated from HUVECs treated with compound 1 (10 μM) alone, compound 1 (10 μM) and bFGF (10 ng/mL), bFGF (10 ng/mL) alone, respectively.

[3] = tested on: MMP-2; test: Northern blot analysis of MMP-2 expression in HUVECs; format: cell-based, human; settings: bFGF 10 ng/mL alone, 24 hr
Experimental: as §1, §2, §3

[4] = positive control, 60μ (text: 60 μg)

NC(=O)c1nc[nH]c1N [AIC, aminoimidazole carboxamide, reference compound]
% Inhibition (capillary formation in vivo) ([1]; 10 μM, 48 hr): 16% | Eggs with avascular zones/total ([1]; 10 μM, 48 hr): 4/24 | angiogenesis inhibitory effect (in words) ([1]; 10 or 20 μM, 48 hr): inactive

C[C@]12CCC(=O)C=C1CC[C@@H]1[C@@H]2[C@@H](O)C[C@@]2(C)[C@H]1CC[C@]2(O)C(=O)CO [Hydrocortisone, hydrocortisone, reference compound]
% Inhibition (capillary formation in vivo) [1, 4]: 55% | Eggs with avascular zones/total [1, 4]: 10/18

bFGF: Recombinant basic fibroblast growth factor (bFGF)
β-actin (densitometer) [2]: 205 Densitometer units | Corrected values (MMP-2 mRNA corrected for loading) [3]: 0.37 | MMP-2 (densitometer) [3]: 77 Densitometer units
